Results as given in patent US9873702B2, “Heterocyclic compounds as biogenic amine transport modulators” (Southern Research Institute, priority 2014, dated 2018).
Where two headings read alike, the source gives them in different places.

Columns and labels:
[1] = molecular target: dopamine transporter (DAT) (Rattus norvegicus, UniProt P23977); assay: Dopamine reuptake ([^3H]dopamine uptake) inhibition in rat brain synaptosomes; details: for Emax: read-out: DA Uptake Emax (% I ± SD)
[2] = DA Uptake EC50 (nM ± SD), rat caudate synaptosomes, 5 nM [^3H]dopamine, 15 min, 25° C., three experiments pooled

dopamine transporter (DAT), sequence (P23977 whole entry): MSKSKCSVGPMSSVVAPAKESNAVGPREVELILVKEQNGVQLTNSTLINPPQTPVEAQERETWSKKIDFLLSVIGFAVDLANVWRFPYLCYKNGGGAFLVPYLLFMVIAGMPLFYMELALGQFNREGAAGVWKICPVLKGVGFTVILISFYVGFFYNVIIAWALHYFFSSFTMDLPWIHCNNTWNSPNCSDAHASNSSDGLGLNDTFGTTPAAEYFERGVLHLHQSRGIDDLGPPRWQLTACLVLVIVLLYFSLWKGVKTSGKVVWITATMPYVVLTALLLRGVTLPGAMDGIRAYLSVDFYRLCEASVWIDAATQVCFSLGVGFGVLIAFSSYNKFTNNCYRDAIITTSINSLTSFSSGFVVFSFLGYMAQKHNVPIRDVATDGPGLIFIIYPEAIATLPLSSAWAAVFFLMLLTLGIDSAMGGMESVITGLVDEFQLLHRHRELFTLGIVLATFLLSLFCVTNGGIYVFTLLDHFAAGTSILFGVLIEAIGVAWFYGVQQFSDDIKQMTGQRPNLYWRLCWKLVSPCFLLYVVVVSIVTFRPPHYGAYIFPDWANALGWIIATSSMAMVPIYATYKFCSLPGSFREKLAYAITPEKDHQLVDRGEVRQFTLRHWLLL

SMILES	melting point	IC50 [1, 2]	Emax [1]	IC50 [1]
c1ccc(C(CNc2nc(-c3ccc4cnccc4c3)nc3ccccc23)c2ccccc2)cc1 [compound 133, N-(2,2-Diphenylethyl)-2-(Isoquinolin-6-yl)Quinazolin-4-Amine]	242 to 244 °C	194 ± 30 nM	70 ± 2%	
CC(C)(C)OC(=O)Nc1ncc(-c2nc(NCC(c3ccccc3)c3ccccc3)c3ccccc3n2)cn1 [compound 43, Tert-Butyl (5-(4-((2,2-Diphenylethyl)Amino)Quinazolin-2-yl)Pyrimidin-2-yl)Carbamate]	189 °C	1890 nM	< 100%	
c1ccc(C(CNc2nc(N3CCc4c([nH]c5ccccc45)C3)nc3ccccc23)c2ccccc2)cc1 [compound 190, 2-(3,4-Dihydro-1H-Pyrido[3,4-B]Indol-2(9H)-yl)-N-(2,2-Diphenylethyl)Quinazolin-4-Amine]	185 to 187 °C	6.9 ± 2 nM	80 ± 3%	
c1ccc(C(CNc2nc(-c3cccc4ncccc34)nc3ccccc23)c2ccccc2)cc1 [compound 49, N-(2,2-Diphenylethyl)-2-(Quinolin-5-yl)Quinazolin-4-Amine]	207 °C	130 ± 16 nM	73 ± 2%	
CCN(CC)C(=O)[C@]1(c2ccccc2)C[C@@H]1CNc1nc(-c2cn3ccnc3cc2C)nc2ccccc12 [compound 171, (1R,2S)—N,N-Diethyl-2-(((2-(7-Methylimidazo[1,2-A]pyridin-6-yl)Quinazolin-4-yl)Amino)Methyl)-1-Phenylcyclopropanecarboxamide]	225 to 228 °C	16 ± 7 nM	73 ± 5%	
Cc1cc2nccn2cc1-c1nc(NCC(C)(c2ccccc2)c2ccccc2)c2ccccc2n1 [compound 178, N-(2,2-Diphenylpropyl)-2-(7-Methylimidazo[1,2-A]Pyridin-6-yl)Quinazolin-4-Amine]	275 to 277 °C	5 ± 1.1 nM	76 ± 3%	
c1ccc(C(CNc2nc(-n3cccn3)nc3ccccc23)c2ccccc2)cc1 [compound 51, N-(2,2-Diphenylethyl)-2-(1H-Pyrazol-1-yl)Quinazolin-4-Amine]	191 °C	510 nM	< 100%	
Cl.c1ccc(C(CNc2nc(-c3ccc4nccn4c3)nc3cc(OCCCN4CCOCC4)ccc23)c2ccccc2)cc1 [compound 125, N-(2,2-Diphenylethyl)-2-(Imidazo[1,2-A]Pyridin-6-yl)-7-(3-Morpholinopropoxy)Quinazolin-4-Amine Hydrochloride]	232 °C		52 ± 3%	75 ± 25 nM
Cc1cc2nccn2cc1-c1nc(NC[C@H](c2ccccc2)n2cccc2)c2ccccc2n1 [compound 162, (S)-2-(7-Methylimidazo[1,2-A]Pyridin-6-yl)-N-(2-Phenyl-2-(1H-Pyrrol-1-yl)Ethyl)Quinazolin-4-Amine]	196 to 198 °C	2.2 ± 0.4 nM	62 ± 2%	
Cc1cc2nccn2cc1-c1nc(NCC(c2ccccc2)C(C)C)c2ccccc2n1 (stereo not drawn) [compound 169, N-(3-Methyl-2-Phenylbutyl)-2-(7-Methylimidazo[1,2-A]Pyridin-6-yl)Quinazolin-4-Amine]	115 to 118 °C	1.8 ± 0.4 nM	64 ± 2%	
CN(C)c1ccc(-c2nc(NC(c3ccccc3)c3ccccc3)c3ccccc3n2)cn1 [compound 92, N-Benzhydryl-2-(6-(Dimethylamino)Pyridin-3-yl)Quinazolin-4-Amine]	207 °C	34 ± 5 nM	68 ± 2%	
c1ccc(C(CNc2nc(N3Cc4ccccc4C3)nc3ccccc23)c2ccccc2)cc1 [compound 189, N-(2,2-Diphenylethyl)-2-(Isoindolin-2-yl)Quinazolin-4-Amine]	293 to 295 °C	24 ± 7 nM	83 ± 4%	
O=C(Nc1nc(-c2ccc3nccn3c2)nc2ccccc12)C(c1ccccc1)c1ccccc1 [compound 144, N-(2-(Imidazo[1,2-A]Pyridin-6-yl)Quinazolin-4-yl)-2,2-Diphenylacetamide]	218 to 220 °C	160 ± 28 nM	61 ± 2%	
c1ccc(C(CNc2nc(-c3ccsc3)nc3ccccc23)c2ccccc2)cc1 [compound 10, N-(2,2-Diphenylethyl)-2-(thiophen-3-yl)quinazolin-4-amine]	152 to 155 °C	250 nM	< 100%	
c1ccc(C(CNc2nc(-c3ccc4nccnc4c3)nc3ccccc23)c2ccccc2)cc1 [compound 56, N-(2,2-Diphenylethyl)-2-(Quinoxalin-6-yl)Quinazolin-4-Amine]	198 °C	89 ± 13 nM	70 ± 2%	
c1ccc(C(CNc2nc(-c3ccc4nccn4c3)nc3ccccc23)N2CCCCC2)cc1 (stereo not drawn) [compound 119, 2-(Imidazo[1,2-A]Pyridin-6-yl)-N-(2-Phenyl-2-(Piperidin-1-yl)Ethyl)Quinazolin-4-Amine]	193 to 195 °C	117 ± 35 nM	83 ± 5%	
c1ccc(C(c2ccccc2)N2CC(Nc3nc(-c4ccc5nccn5c4)nc4ccccc34)C2)cc1 [compound 148, N-(1-Benzhydrylazetidin-3-yl)-2-(Imidazo[1,2-A]Pyridin-6-yl)Quinazolin-4-Amine]	67 to 69 °C	91 ± 21 nM	81 ± 3%	
CC(C)C(CNc1nc(N2CCc3[nH]ccc3C2)nc2ccccc12)c1ccccc1 (stereo not drawn) [compound 201, 2-(6,7-Dihydro-1H-Pyrrolo[3,2-c]Pyridin-5(4H)-yl)-N-(3-Methyl-2-Phenylbutyl)Quinazolin-4-Amine]	221 to 223 °C	7.2 ± 2.6 nM	88 ± 5%	
c1ccc(C(CNc2nc(-c3ccncc3)nc3ccccc23)c2ccccc2)cc1 [compound 39, N-(2,2-Diphenylethyl)-2-(Pyridin-4-yl)Quinazolin-4-Amine]	242 °C	47 ± 6 nM	78 ± 2%	
c1ccc(C(CNc2nc(-c3cncnc3)nc3ccccc23)c2ccccc2)cc1 [compound 18, N-(2,2-Diphenylethyl)-2-(Pyrimidin-5-yl)Quinazolin-4-Amine]	213 to 215 °C	160 nM	< 100%	
c1ccc(C(CNc2nc(-c3ccc4[nH]ccc4c3)nc3ccccc23)c2cccnc2)cc1 (stereo not drawn) [compound 130, 2-(1H-Indol-5-yl)-N-(2-Phenyl-2-(Pyridin-3-yl)Ethyl)Quinazolin-4-Amine]	109 to 111 °C	40 ± 5 nM	74 ± 2%	
Cn1ncc2cc(-c3nc(NCC(c4ccccc4)c4ccccc4)c4ccccc4n3)ccc21 [compound 67, N-(2,2-Diphenylethyl)-2-(1-Methyl-1H-Indazol-5-yl)Quinazolin-4-Amine]	200 °C	43 ± 9 nM	66 ± 2%	

Continued by falling IC50 [1, 2], values first:

melting point	IC50 [1, 2]	Emax [1]	SMILES	IC50 [1]
161 to 163 °C	94 ± 18 nM	100 ± 3%	c1ccc(CCNc2nc(N3CCc4[nH]ccc4C3)nc3ccccc23)cc1 [compound 202, 2-(6,7-Dihydro-1H-Pyrrolo[3,2-c]Pyridin-5(4H)-yl)-N-Phenethylquinazolin-4-Amine]	
234 to 236 °C	85 ± 5 nM	72 ± 1%	Cc1cc2nccn2cc1-c1nc(NCCc2ccncc2)c2ccccc2n1 [compound 181, 2-(7-Methylimidazo[1,2-A]Pyridin-6-yl)-N-(2-(Pyridin-4-yl)Ethyl)Quinazolin-4-Amine]	
192 to 196 °C	66 ± 10 nM	68 ± 2%	c1ccc2c(NCC(c3ccncc3)c3ccncc3)nc(-c3ccc4nccn4c3)nc2c1 [compound 158, N-(2,2-Di(Pyridin-4-yl)Ethyl)-2-(Imidazo[1,2-A]Pyridin-6-yl)Quinazolin-4-Amine]	
233 °C	62 nM	100%	c1ccc(C(CNc2nc(-c3cn[nH]c3)nc3ccccc23)c2ccccc2)cc1 [compound 75, N-(2,2-Diphenylethyl)-2-(1H-Pyrazol-4-yl)Quinazolin-4-Amine]	
102 to 104 °C	45 ± 7 nM	98 ± 3%	c1ccc(C(CNc2nc(-c3cccc4cccnc34)nc3ccccc23)c2ccccc2)cc1 [compound 141, N-(2,2-Diphenylethyl)-2-(Quinolin-8-yl)Quinazolin-4-Amine]	
231 °C	38 ± 5 nM	73 ± 2%	c1ccc(C(CNc2nc(-n3ccnc3)nc3ccccc23)c2ccccc2)cc1 [compound 48, N-(2,2-Diphenylethyl)-2-(1H-Imidazol-1-yl)Quinazolin-4-Amine]	
193 °C	31 ± 5 nM	69 ± 2%	c1ccc(C(CNc2nc(-c3cnc4[nH]ccc4c3)nc3ccccc23)c2ccccc2)cc1 [compound 123, N-(2,2-Diphenylethyl)-2-(1H-Pyrrolo[2,3-B]Pyridin-5-yl)Quinazolin-4-Amine]	
224 to 226 °C	31 ± 10 nM	88 ± 4%	c1ccc2c(NCC(c3ccncc3)c3ccncc3)nc(N3CCc4[nH]ccc4C3)nc2c1 [compound 174, N-(2,2-Di(pyridin-4-yl)Ethyl)-2-(6,7-Dihydro-1H-Pyrrolo[3,2-C]Pyridin-5(4H)-yl)Quinazolin-4-Amine]	
244 °C	30 ± 5 nM	77 ± 2%	O=C1Cc2cc(-c3nc(NCC(c4ccccc4)c4ccccc4)c4ccccc4n3)ccc2N1 [compound 78, 5-(4-((2,2-Diphenylethyl)Amino)Quinazolin-2-yl)Indolin-2-One]	
250 to 253 °C	1.7 ± 0.4 nM	77 ± 3%	c1ccc(C(CNc2nc(N3CCc4ccccc4C3)nc3ccccc23)c2ccccc2)cc1 [compound 193, 2-(3,4-Dihydroisoquinolin-2(1H)-yl)-N-(2,2-Diphenylethyl)Quinazolin-4-Amine]	
232 to 234 °C	1.4 ± 0.2 nM	75 ± 2%	CCC(CNc1nc(-c2cn3ccnc3cc2C)nc2ccccc12)c1ccccc1 (stereo not drawn) [compound 188, 2-(7-Methylimidazo[1,2-A]Pyridin-6-yl)-N-(2-Phenylbutyl)Quinazolin-4-Amine]	
